Measured values reported in ChEMBL document CHEMBL5528010, “The discovery of aryl-2-nitroethyl triamino pyrimidines as anti-Trypanosoma brucei agents” (Eur J Med Chem, 2024).
Active and inactive are the calls of the source. No cut-off for these calls is given here.

What was measured:
Trypanosoma brucei [1] = assay: Anti-parasitic activity against Trypanosoma brucei infected in BALB/c mouse model assessed as reduction of parasitemia at 5 mg/kg/day, ip relative to control; type: functional; set-up: scale not given: the % may be the effect or the level left
Pteridine reductase 1 = biological target: T1, Pteridine reductase 1 (Leishmania major, UniProt Q01782); assay: Inhibition of N-terminal his 6 tagged recombinant Leishmania major PTR1 expressed in Escherichia coli BL21 (DE3) cells preincubated for 10 mins followed by NADPH addition and measured after 10 to 50 mins by multilabel plate reader method
T1 sequence (Q01782 whole entry): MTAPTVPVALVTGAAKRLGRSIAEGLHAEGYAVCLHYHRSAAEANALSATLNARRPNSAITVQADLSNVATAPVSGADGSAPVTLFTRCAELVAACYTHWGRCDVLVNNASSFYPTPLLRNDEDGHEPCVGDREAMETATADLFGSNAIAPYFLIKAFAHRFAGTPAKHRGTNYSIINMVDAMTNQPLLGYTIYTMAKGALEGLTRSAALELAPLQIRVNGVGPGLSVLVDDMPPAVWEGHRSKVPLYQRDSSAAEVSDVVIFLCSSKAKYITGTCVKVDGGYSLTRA

Trypanosoma brucei [2] = assay: Antiparasitic activity against blood stream form Trypanosoma brucei assessed as parasitic growth inhibition incubated for 72 hrs by resazurin dye based fluorescence analysis; type: functional, organism-based
Cytochrome P450 2C9 = Cytochrome P450 2C9 (Homo sapiens, UniProt P11712); assay: Inhibition of CYP2C9 (unknown origin) expressed in baculovirus infected insect cells using luciferin as substrate preincubated for 30 mins followed by NADPH addition and measured after 30 mins by luminescence based analysis; type: ADME, Insect cell
Cytochrome P450 2C9, sequence (P11712 whole entry): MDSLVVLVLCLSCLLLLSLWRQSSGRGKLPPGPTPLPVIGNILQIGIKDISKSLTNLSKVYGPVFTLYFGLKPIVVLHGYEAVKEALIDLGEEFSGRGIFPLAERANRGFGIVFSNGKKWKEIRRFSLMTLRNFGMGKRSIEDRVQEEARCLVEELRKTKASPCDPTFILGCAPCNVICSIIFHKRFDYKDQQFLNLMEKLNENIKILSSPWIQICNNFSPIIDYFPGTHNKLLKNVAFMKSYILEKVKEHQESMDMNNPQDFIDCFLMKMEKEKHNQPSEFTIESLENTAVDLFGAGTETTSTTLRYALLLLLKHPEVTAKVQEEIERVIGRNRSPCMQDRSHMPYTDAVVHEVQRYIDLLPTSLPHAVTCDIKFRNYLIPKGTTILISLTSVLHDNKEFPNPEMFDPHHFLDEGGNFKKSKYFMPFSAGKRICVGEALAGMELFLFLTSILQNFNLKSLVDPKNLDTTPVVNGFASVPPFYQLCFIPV

Cytochrome P450 3A4 = Cytochrome P450 3A4 (Homo sapiens, UniProt P08684); assay: Inhibition of CYP3A4 (unknown origin) expressed in baculovirus infected insect cells using luciferin as substrate preincubated for 30 mins followed by NADPH addition and measured after 30 mins by luminescence based analysis; type: ADME, Insect cell
Cytochrome P450 3A4, sequence (P08684 whole entry): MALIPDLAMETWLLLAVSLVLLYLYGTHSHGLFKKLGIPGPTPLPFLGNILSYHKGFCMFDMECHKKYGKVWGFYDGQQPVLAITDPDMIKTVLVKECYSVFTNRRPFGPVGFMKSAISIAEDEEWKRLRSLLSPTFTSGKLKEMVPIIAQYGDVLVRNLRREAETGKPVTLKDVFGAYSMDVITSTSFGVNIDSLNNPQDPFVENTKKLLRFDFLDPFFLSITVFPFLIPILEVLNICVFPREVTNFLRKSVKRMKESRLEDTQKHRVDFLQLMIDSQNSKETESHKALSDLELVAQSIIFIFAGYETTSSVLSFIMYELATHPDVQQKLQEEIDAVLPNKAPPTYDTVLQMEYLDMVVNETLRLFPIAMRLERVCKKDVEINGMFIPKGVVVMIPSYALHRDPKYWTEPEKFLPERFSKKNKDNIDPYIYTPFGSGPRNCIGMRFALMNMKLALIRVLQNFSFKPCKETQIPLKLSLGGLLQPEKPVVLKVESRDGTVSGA

[3] = Selectivity index, ratio of GI50 for human A549 cells to EC50 for blood stream form Trypanosoma brucei; type: toxicity; conditions: read-out: Ratio GI50/EC50
CYP2C9 = assay: Selectivity index, ratio of IC50 for CYP2C9 (unknown origin) to EC50 for blood stream form Trypanosoma brucei; type: toxicity; conditions: read-out: Ratio IC50/EC50
CYP1A2 = assay: Selectivity index, ratio of IC50 for CYP1A2 (unknown origin) to EC50 for blood stream form Trypanosoma brucei; type: toxicity; conditions: read-out: Ratio IC50/EC50
[4] = AUC last in BALB/c mouse at 20 mg/kg, po measured upto 24 hrs by LC-MS/MS analysis; type: ADME, organism-based; conditions: in vivo
hERG = assay: Selectivity index, ratio of IC50 for human ERG to EC50 for blood stream form Trypanosoma brucei; type: toxicity; conditions: read-out: Ratio IC50/EC50
THP-1 = assay: Cytotoxicity against human THP-1 cells assessed as reduction in cell viability measured after 72 hrs by MTT assay; type: functional
[5] = Selectivity index, ratio of CC50 for human THP-1 cells to EC50 for bloodstream form Trypanosoma brucei; type: toxicity; conditions: read-out: Ratio CC50/EC50
Cytochrome P450 1A2 = biological target: T2, Cytochrome P450 1A2 (Homo sapiens, UniProt P05177); assay: Inhibition of CYP1A2 (unknown origin) expressed in baculovirus infected insect cells using luciferin as substrate preincubated for 30 mins followed by NADPH addition and measured after 30 mins by luminescence based analysis; type: ADME, Insect cell
T2 sequence (P05177 whole entry): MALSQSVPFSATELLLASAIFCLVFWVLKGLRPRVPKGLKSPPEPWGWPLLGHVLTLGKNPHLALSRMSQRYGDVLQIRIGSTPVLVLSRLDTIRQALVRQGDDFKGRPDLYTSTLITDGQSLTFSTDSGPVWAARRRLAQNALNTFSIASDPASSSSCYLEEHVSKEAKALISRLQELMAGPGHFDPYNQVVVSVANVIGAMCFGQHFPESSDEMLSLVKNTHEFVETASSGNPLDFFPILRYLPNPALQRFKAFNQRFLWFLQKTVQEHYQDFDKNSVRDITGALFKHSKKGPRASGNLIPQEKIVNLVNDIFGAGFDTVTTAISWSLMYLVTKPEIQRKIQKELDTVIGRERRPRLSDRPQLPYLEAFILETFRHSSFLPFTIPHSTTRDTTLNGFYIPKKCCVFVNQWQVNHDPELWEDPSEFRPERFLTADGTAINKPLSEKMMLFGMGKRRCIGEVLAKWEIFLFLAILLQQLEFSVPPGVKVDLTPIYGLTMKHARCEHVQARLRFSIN

CYP2C19 = assay: Selectivity index, ratio of IC50 for CYP2C19 (unknown origin) to EC50 for blood stream form Trypanosoma brucei; type: toxicity; conditions: read-out: Ratio IC50/EC50
CYP2D6 = assay: Selectivity index, ratio of IC50 for CYP2D6 (unknown origin) to EC50 for blood stream form Trypanosoma brucei; type: toxicity; conditions: read-out: Ratio IC50/EC50
[6] = Tmax in BALB/c mouse at 20 mg/kg, po measured upto 24 hrs by LC-MS/MS analysis; type: ADME, organism-based; conditions: in vivo
[7] = Growth inhibition of human A549 cells measured after 48 hrs by celltiter-glo assay; type: toxicity, cell-based
Leishmania infantum = assay: Antiparasitic activity against Leishmania infantum intracellular amastigotes MHOM/BR/1972/BH46 infected in human THP-1 cells assessed as inhibition of parasitic growth at 50 uM pre-infected for 24 hrs followed by compound addition and measured after 48 hrs relative to control; type: functional; conditions: MHOM/BR/1972/BH46, THP-1
Cytochrome P450 2C19 = Cytochrome P450 2C19 (Homo sapiens, UniProt P33261); assay: Inhibition of CYP2C19 (unknown origin) expressed in baculovirus infected insect cells using luciferin as substrate preincubated for 30 mins followed by NADPH addition and measured after 30 mins by luminescence based analysis; type: ADME, Insect cell
Cytochrome P450 2C19, sequence (P33261 whole entry): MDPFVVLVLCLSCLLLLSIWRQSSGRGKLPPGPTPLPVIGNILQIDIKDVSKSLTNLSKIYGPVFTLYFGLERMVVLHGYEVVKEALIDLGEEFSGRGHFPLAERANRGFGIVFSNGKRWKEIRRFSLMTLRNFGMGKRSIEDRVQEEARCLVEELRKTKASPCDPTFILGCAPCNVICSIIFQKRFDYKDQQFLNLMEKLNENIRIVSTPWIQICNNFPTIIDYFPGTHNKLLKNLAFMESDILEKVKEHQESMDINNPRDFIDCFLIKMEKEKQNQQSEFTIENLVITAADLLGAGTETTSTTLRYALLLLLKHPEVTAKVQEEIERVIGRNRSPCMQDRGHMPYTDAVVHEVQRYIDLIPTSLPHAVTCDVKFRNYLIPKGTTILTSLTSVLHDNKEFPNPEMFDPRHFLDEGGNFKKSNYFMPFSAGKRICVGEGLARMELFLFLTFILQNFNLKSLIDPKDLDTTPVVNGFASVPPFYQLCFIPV

[8] = Cmax in BALB/c mouse at 20 mg/kg, po measured upto 24 hrs by LC-MS/MS analysis; type: ADME, organism-based; conditions: in vivo
CYP3A4 = assay: Selectivity index, ratio of IC50 for CYP3A4 (unknown origin) to EC50 for blood stream form Trypanosoma brucei; type: toxicity; conditions: read-out: Ratio IC50/EC50
[9] = Mitochondrial toxicity in human A549 cells; type: cell-based
[10] = Selectivity index, ratio of IC50 for human A549 cells to EC50 for blood stream form Trypanosoma brucei; type: toxicity; conditions: read-out: Ratio IC50/EC50
[11] = Inhibition of N-terminal his 6 tagged recombinant Trypanosoma brucei PTR1 expressed in Escherichia coli BL21 (DE3) cells preincubated for 10 mins followed by NADPH addition and measured after 10 to 50 mins by multilabel plate reader method; type: cell-based
Cytochrome P450 2D6 = Cytochrome P450 2D6 (Homo sapiens, UniProt P10635); assay: Inhibition of CYP2D6 (unknown origin) expressed in baculovirus infected insect cells using luciferin as substrate preincubated for 30 mins followed by NADPH addition and measured after 30 mins by luminescence based analysis; type: ADME, Insect cell
Cytochrome P450 2D6, sequence (P10635 whole entry): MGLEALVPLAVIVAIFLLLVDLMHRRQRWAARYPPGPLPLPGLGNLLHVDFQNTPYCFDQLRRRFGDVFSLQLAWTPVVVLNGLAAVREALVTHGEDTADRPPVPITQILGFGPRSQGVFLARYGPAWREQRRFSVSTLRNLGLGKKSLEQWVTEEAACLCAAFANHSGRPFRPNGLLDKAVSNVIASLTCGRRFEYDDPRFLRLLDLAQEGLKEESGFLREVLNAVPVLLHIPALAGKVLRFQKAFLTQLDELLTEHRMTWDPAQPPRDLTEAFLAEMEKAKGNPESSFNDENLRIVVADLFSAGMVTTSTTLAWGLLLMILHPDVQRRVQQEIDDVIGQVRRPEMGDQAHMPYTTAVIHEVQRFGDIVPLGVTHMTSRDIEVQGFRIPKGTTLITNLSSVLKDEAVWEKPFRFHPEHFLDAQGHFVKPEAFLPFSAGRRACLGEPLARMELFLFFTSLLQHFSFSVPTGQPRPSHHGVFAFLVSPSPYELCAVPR

[12] = biological target: Voltage-gated inwardly rectifying potassium channel KCNH2 (Homo sapiens, UniProt Q12809); assay: Inhibition of human ERG incubated for 2 hrs by fluorescence polarization assay; type: toxicity
Voltage-gated inwardly rectifying potassium channel KCNH2, sequence (Q12809 whole entry): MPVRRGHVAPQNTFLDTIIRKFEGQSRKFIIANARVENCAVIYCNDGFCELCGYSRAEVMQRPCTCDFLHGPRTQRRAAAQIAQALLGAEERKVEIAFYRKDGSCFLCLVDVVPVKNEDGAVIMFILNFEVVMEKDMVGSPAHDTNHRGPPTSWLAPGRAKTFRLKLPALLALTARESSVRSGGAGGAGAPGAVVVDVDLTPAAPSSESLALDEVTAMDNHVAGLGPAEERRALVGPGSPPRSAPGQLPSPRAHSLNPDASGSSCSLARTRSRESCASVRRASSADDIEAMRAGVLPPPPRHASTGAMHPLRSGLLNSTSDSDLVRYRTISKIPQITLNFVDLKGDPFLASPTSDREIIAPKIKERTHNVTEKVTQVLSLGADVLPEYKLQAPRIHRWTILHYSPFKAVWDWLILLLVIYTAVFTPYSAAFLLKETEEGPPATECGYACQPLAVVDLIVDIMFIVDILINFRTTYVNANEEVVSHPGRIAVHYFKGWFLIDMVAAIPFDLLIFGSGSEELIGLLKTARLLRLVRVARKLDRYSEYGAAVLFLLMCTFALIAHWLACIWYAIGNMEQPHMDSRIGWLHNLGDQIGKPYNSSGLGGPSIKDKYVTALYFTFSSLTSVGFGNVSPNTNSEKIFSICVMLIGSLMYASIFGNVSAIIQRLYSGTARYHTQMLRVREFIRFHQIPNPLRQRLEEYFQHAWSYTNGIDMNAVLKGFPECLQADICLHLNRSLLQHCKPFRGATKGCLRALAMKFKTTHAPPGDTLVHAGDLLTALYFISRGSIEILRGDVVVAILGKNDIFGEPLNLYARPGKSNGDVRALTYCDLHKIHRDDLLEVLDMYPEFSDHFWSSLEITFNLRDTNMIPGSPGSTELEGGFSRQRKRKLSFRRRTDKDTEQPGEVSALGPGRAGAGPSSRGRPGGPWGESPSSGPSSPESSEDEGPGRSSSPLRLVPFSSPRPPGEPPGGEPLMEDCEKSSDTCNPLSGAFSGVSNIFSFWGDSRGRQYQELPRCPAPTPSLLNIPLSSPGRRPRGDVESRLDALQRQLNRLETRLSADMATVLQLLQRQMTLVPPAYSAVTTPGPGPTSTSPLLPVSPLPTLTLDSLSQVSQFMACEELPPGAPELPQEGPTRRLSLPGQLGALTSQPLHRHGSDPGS

[13] = Half life in BALB/c mouse at 20 mg/kg, po measured upto 24 hrs by LC-MS/MS analysis; type: ADME, organism-based; conditions: in vivo
Trypanosoma brucei [14] = assay: Anti-parasitic activity against Trypanosoma brucei infected in BALB/c mouse model assessed as reduction of parasitemia at 20 mg/kg administered daily; type: functional, organism-based

| SMILES | IC50 (Pteridine reductase 1) | EC50 (Trypanosoma brucei [2]) | IC50 (Cytochrome P450 2C9) | IC50 (Cytochrome P450 3A4) | selectivity ratio [3] | selectivity ratio (CYP2C9) | selectivity ratio (CYP1A2) | AUC(0-t) at 24 h [4] | selectivity ratio (hERG) | CC50 (THP-1) | selectivity ratio [5] | IC50 (Cytochrome P450 1A2) | selectivity ratio (CYP2C19) | selectivity ratio (CYP2D6) | Tmax [6] | GI50 at 48 h [7] | inhibition at 50 µM (Leishmania infantum) | IC50 (Cytochrome P450 2C19) | Cmax [8] | selectivity ratio (CYP3A4) | further results |
| --- | --- | --- | --- | --- | --- | --- | --- | --- | --- | --- | --- | --- | --- | --- | --- | --- | --- | --- | --- | --- | --- |
| N=C(N)c1ccc(OCCCCCOc2ccc(C(=N)N)cc2)cc1 [PENTAMIDINE] | 87.1 µM | 0.004 µM |  |  |  |  |  |  |  |  |  |  |  |  |  |  |  |  |  |  | Activity (Trypanosoma brucei [1]): 100% |
| Nc1nc(N)c(C(C[N+](=O)[O-])c2ccccc2OCc2ccc(Cl)c(Cl)c2)c(N)n1 (stereo unspecified) | 46 µM | 0.3 µM | 3.2 µM | 5.9 µM | 33 | 11 | 4 | 1180 ng·h/mL | > 300 | 25 µM | 83 | 1.2 µM | 26 | 20 | 0.5 h | 10 µM | 11.7% | 8 µM | 373 ng/mL | 20 | IC50 [9]: 3.9 µM; selectivity ratio [10]: 13; IC50 [11]: 0.27 µM; IC50 (Cytochrome P450 2D6): 5.9 µM; IC50 [12]: > 100 µM; half-life [13]: 3 h |
| Nc1nc(N)c(C(C[N+](=O)[O-])c2csc3ccccc23)c(N)n1 (stereo unspecified) | 47.4 µM | 0.09 µM | 24.4 µM | > 100 µM | 117 | 271 | 33 | 5290 ng·h/mL | 178 | 12.5 µM | 139 | 3 µM | 170 | 113 | 1 h | 10.6 µM | 49% | 15.3 µM | 828 ng/mL | > 1100 | IC50 [9]: 10.4 µM; selectivity ratio [10]: 115; IC50 [11]: 0.3 µM; IC50 (Cytochrome P450 2D6): 10.2 µM; IC50 [12]: 16 µM; Activity (Trypanosoma brucei [14]): inactive; half-life [13]: 2.1 h |
